We go through 16 compounds from patent US12226405B2, “Compounds and compositions for inhibiting the activity of HIF2-alpha and their methods of use” (Novartis AG, priority 2020, dated 2025).

The conditions of data set [1]: 25° C.; for hygroscopicity assignment (DVS): 0 to 95% RH. Here is the method:
Dynamic vapor sorption was performed using a SMS Advantage system. Approximately 10 mg of sample was subjected to varying humidities between 0% RH and 95% RH at 25° C. Evaluation was performed using the system software.

For data set [2], the system named is HIF2α-dependent transcription in 786-O-HRE-Luc cells. In words: In vitro cellular hypoxia response element (HRE) reporter gene assay (RGA) for HIF2α. The following applies: Homo sapiens, 24 hours incubation. It is filed as cell-based, human. The procedure, abridged: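 Renal carcinoma cells carrying a 4×HRE-driven PEST-destabilised firefly luciferase were treated a day after seeding with eleven 2-fold compound dilutions (0.1% DMSO) for 24 h at 37° C. BrightGlo luminescence, background-subtracted and expressed as % of DMSO control, was fitted four-parametrically for IC50.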

Data set [3] has as its target T1, HIF2α PAS-B domain (236-350, biotinylated on the N-terminus) (Homo sapiens (Human), UniProt Q99814). Briefly: biochemical.
Description: (§1) The assay buffer contained 50 mM Tris-HCl pH7 (Sigma), 20 mM NaCl (Fluka), 0.02% BSA (Sigma), 0.005% Triton X-100 (Pierce) and 1 mM DTT (Fluka). After a 30 min incubation period, 5 μL Streptavidin PVT SPA Beads (Perkin Elmer) at 1.2 mg/mL, diluted in the buffer, were added.
Data set [4] deals with HIF2α-regulated expression of the endogenous target gene hEGLN3 in 786-O cells. In words: Cellular iScript assay for HIF2α (quantitative RT-PCR of hEGLN3). The data set is classed as cell-based, human. The following applies: Homo sapiens, 786-0, 48 hours incubation. The procedure, abridged:
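786-O cells were exposed to eleven 2-fold compound dilutions for 48 h at 37° C. Lysates underwent one-step TaqMan qRT-PCR for hEGLN3 with beta-actin as reference; 2^(−ΔΔCt) versus DMSO, as % of control, was fit with a four-parameter model to give IC50.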

Data set [5] addresses T1, HIF2α PAS-B domain (236-350, biotinylated on the N-terminus).
Description: as §1
The target is the same in data set [6]. In words: In vitro SPA with the PAS-B domain of HIF2α (competition binding with radio-ligand). The settings on record: read-out: affinity of the non-labeled ligand, IC50.
Description: as §1

Where two headings read alike, the source gives them in different places.

T1 sequence (Q99814 236-350): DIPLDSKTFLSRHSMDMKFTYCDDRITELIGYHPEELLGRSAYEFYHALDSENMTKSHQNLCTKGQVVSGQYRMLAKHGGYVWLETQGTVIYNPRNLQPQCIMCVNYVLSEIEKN

With `FC(F)OC1=CC(C(F)(F)F)=CN2C[C@@]3(CCC(F)(F)c4c3ccnc4Cl)N=C12.O=C(O)/C=C/C(=O)O`, in data set [1], the “hygroscopicity assignment (DVS)” value is given as “non-hygroscopic”; the “mass difference between 0 and 95% RH (DVS)” value is listed as “less than 0.1 weight %”.

For the compound `FC(F)OC1=CC(C(F)(F)F)=CN2C[C@@]3(CCC(F)(F)c4c3ccnc4Cl)N=C12`, in data set [1], the “hygroscopicity assignment (DVS)” value is reported as “non-hygroscopic”; the “mass difference between 0 and 95% RH (DVS)” value was “less than 0.05 weight %”.

`FC1=CC(C(F)(F)F)=CN2CC3(CCCc4c3ccc(F)c4F)N=C12` (racemic) [Example 78, rac-5′,6′,8-trifluoro-6-(trifluoromethyl)-3′,4′-dihydro-2′H,3H-spiro[imidazo[1,2-a]pyridine-2,1′-naphthalene]]: the IC50 (in general, the concentration needed to halve the response being measured) in data set [2] turned out to be 4230 nM; in data set [3] it was 8 nM; in data set [4], 161 nM.

For the compound `FC(F)OC1=CC(C(F)(F)F)=CN2CC3(CCCc4c(Br)cccc43)N=C12` (racemic) [Example 81, rac-5′-bromo-8-(difluoromethoxy)-6-(trifluoromethyl)-3′,4′-dihydro-2′H,3H-spiro[imidazo[1,2-a]pyridine-2,1′-naphthalene]], the results for the IC50 in data set [2], in data set [3] and in data set [4] were 143 nM, ≤ 10 nM and 57 nM, respectively.

Turning to `FC(F)OC1=CC(C(F)(F)F)=CN2CC3(CCCc4cnccc43)N=C12` (racemic) [Example 93, rac-8-(difluoromethoxy)-6-(trifluoromethyl)-7′,8′-dihydro-3H,6′H-spiro[imidazo[1,2-a]pyridine-2,5′-isoquinoline]], the half-inhibitory concentration (IC50) was 12 nM in data set [3] and 178 nM in data set [4].

With `Fc1cccc2c1OC[C@H](F)[C@@]21CN2C=C(C(F)(F)F)C=C(OC(F)F)C2=N1` (racemic) [Example 101, rac-8′-(difluoromethoxy)-3,8-difluoro-6′-(trifluoromethyl)-3′H-spiro[chromane-4,2′-imidazo[1,2-a]pyridine]], the IC50 was determined as 15 nM in data set [3] and 149 nM in data set [4].

For `Fc1c(C(F)(F)F)ccc2c1COCC21CN2C=C(C(F)(F)F)C=C(OC(F)F)C2=N1` (racemic) [Example 108, rac-8-(difluoromethoxy)-8′-fluoro-6,7′-bis(trifluoromethyl)-3H-spiro[imidazo[1,2-a]pyridine-2,4′-isochroman]], the IC50 in data set [2] worked out at 692 nM; in data set [3], 29 nM; in data set [4], 156 nM.

With `FC(F)OC1=CC(C(F)(F)F)=CN2CC3(CCCOc4c(Cl)cccc43)N=C12` (racemic) [Example 118, rac-9-chloro-8′-(difluoromethoxy)-6′-(trifluoromethyl)-3,4-dihydro-2H,3′H-spiro[benzo[b]oxepine-5,2′-imidazo[1,2-a]pyridine]], the IC50 in data set [2] was determined as 1030 nM; in data set [3] it was 16 nM; in data set [4] it was 161 nM.

On to `FC(F)OC1=CC(C(F)(F)F)=CN2C[C@]3(CCOc4cc(C(F)(F)F)ccc43)N=C12` [(R)-8′-(difluoromethoxy)-6′,7-bis(trifluoromethyl)-3′H-spiro[chroman-4,2′-imidazo[1,2-a]pyridine]], for which, in data set [3], the IC50 was > 10000 nM.

Turning to `Fc1c(Br)ccc2c1CC[C@@]21CN2C=C(C(F)(F)F)C=C(OC(F)F)C2=N1` [Example 1, (S)-5′-bromo-8-(difluoromethoxy)-4′-fluoro-6-(trifluoromethyl)-2′,3′-dihydro-3H-spiro[imidazo[1,2-a]pyridine-2,1′-indene]], the figures for the IC50 in data set [2], in data set [3] and in data set [4] were 232 nM, ≤ 3 nM and 65 nM, respectively.

On to `O[C@H]1c2c(ccc(Br)c2F)[C@]2(CN3C=C(C(F)(F)F)C=C(OC(F)F)C3=N2)CC1(F)F` [Example 18, (1′S,4'S)-6′-bromo-8-(difluoromethoxy)-3′,3′,5′-trifluoro-6-(trifluoromethyl)-3′,4′-dihydro-2′H,3H-spiro[imidazo[1,2-a]pyridine-2,1′-naphthalen]-4′-ol], for which the IC50 in data set [2] was 92 nM; in data set [3], 6 nM; in data set [4] it was 37 nM.

In the case of `O[C@@H]1c2c(ccc(Br)c2F)[C@]2(CN3C=C(C(F)(F)F)C=C(OC(F)F)C3=N2)CC1(F)F` [Example 19, (1′S,4′R)-6′-bromo-8-(difluoromethoxy)-3′,3′,5′-trifluoro-6-(trifluoromethyl)-3′,4′-dihydro-2′H,3H-spiro[imidazo[1,2-a]pyridine-2,1′-naphthalen]-4′-ol], the IC50 worked out at 446 nM in data set [2], 36 nM in data set [3] and 144 nM in data set [4].

On to `O=C1c2c(F)cccc2[C@@]2(C[C@H]1F)CN1C=C(C(F)(F)F)C=C(OC(F)F)C1=N2` [Example 20, (1′S,3′R)-8-(difluoromethoxy)-3′,5′-difluoro-6-(trifluoromethyl)-2′H,3H-spiro[imidazo[1,2-a]pyridine-2,1′-naphthalen]-4′(3′H)-one], for which the IC50 in data set [2] came to 892 nM; in data set [3], 15 nM; in data set [4], 155 nM.

`N#CC1=CN2C[C@@]3(CSCc4c(F)cccc43)N=C2C(OC(F)F)=C1` [Example 68, (S)-8-(difluoromethoxy)-8′-fluoro-3H-spiro[imidazo[1,2-a]pyridine-2,4′-isothiochroman]-6-carbonitrile]: the IC50 in data set [2] came to 670 nM; in data set [3], 11 nM; in data set [4] it was 111 nM.

Consider `Fc1c(Cl)ccc2c1COCC[C@@]21CN2C=C(C(F)(F)F)C=C(OC(F)F)C2=N1` [Example 119, (S)-8-chloro-8′-(difluoromethoxy)-9-fluoro-6′-(trifluoromethyl)-3,4-dihydro-1H,3′H-spiro[benzo[c]oxepine-5,2′-imidazo[1,2-a]pyridine]], for which the IC50 in data set [2] turned out to be 292 nM; in data set [4], 97 nM; in data set [5], 19 nM.

As to `O=[N+]([O-])c1c(Nc2cc(F)cc(Cl)c2)ccc2nonc12` [N-(3-chloro-5-fluorophenyl-4-t)-4-nitrobenzo[c][1,2,5]oxadiazol-7-t-5-amine, reference compound], the IC50 in data set [6] was 82 ± 18 nM.
